Measured values: patent US7285619B2, “Echinocandin derivatives, their method of preparation and their application as anti-fungal agents” (Aventis Pharma S.A., priority 1997, dated 2007)

Tested on: glucane Synthesis of Candida albicans
Test: Inhibition of the glucane synthesis of Candida albicans (membrane preparation, 14C-UDP glucose incorporation)
Assay type: biochemical
Conditions: purified Candida albicans membranes, 25° C., 1 hour, result in words
Experimental: Tablets have been prepared containing: • The product of example 14 . . . 150 mg • Excipient q.s.p. . . . 1 g (Detail of the excipient: starch, talc, magnesium stearate). Pharmacological Study A—Inhibition of the glucane Synthesis of Candida albicans.
The membranes of Candida albicans are purified according to the process described by Tang and al Antimicrob. Agents Chemother 35, 99-103, 1991. 22.5 μg of membrane proteins are incubated in a mixture of 2 Mm of 14C-UDP glucose (specific activity=0.34 mCi./mmol, 50 μg of α-amylase, 1 Mm of dithiotreitol (DTT), 1 Mm EDTA, 100 Mm NaF, 7 μM of GTP-γ-S, 1M of sucrose and 5 oMm OF Ttris-HCL (pH 7.8) in a volume of 100 μl. The medium is incubated at 25° C. for 1 hour and the reaction terminated by addition of TCA to a final concentration of 5%. The reaction medium is transferred onto a pre-humidified glass fibre filter. The filter is washed, dried and its radioactivity is counted.
Mulundocandin is used as positive control.
The control of the medium is carried out with the same quantity of DMSO 1%.

Molecule | activity in the test of inhibition of the glucane synthesis of Candida albicans
CCCCCCCCOc1ccc(-c2ccc(C(=O)NC3CC(NCCN)CNC(=O)C4C(O)C(C)CN4C(=O)C(CO)NC(=O)C(C(O)Cc4ccc(O)cc4)NC(=O)C4CC(O)CN4C(=O)C(C(C)O)NC3=O)cc2)cc1.O=C(O)C(F)(F)F (single isomer, unassigned; isomer a) [Example 14, Trifluoroacetate of 1-[4-[(2-aminoethyl)amino]N2-[[4′-(octyloxy)[1.1′-biphenyl]-4-yl]carbonyl]-L-ornithine]4-[4-(4-hydroxyphenyl)-L-threonine]-5-L Serine Echinocandin B (Isomer A)] | good activity
(±) Trifluoroacetate of 1-[4-[(aminoiminomethyl) Hydrazono]-N2-(12-methyl-1-oxotetradecyl)-L-ornithine]4-[4-(4-hydroxyphenyl)-L-threonine]-5-L Serine Echinocandin B [Example 11] | good activity
Trifluoroacetate of 1-[4-[(2-aminoethyl)amino]-N2-(12-methyl-1-oxotetradecyl)-L-ornithine]4-[4-(4-hydroxyphenyl)-L-threonine]-5-L Serine Echinocandin B (Isomer A and Isomer B) [Example 9] | good activity
